Reference: PubChem BioAssay AID651733 (The Scripps Research Institute Molecular Screening Center, 2012)
Calls of active or inactive are those of the source. No rule for the calls is given here.

These molecules were tested against Perilipin-5 (Homo sapiens) + 1-acylglycerol-3-phosphate O-acyltransferase ABHD5 (Homo sapiens) (UniProt Q00G26+Q8WTS1) (assay: ABHD5-PLIN5 interaction inhibitors, dose response, cell lysate, luminescence, proteins expressed in HEK293T (AID 651733);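 also: split Gaussia princeps luciferase complementation between ABHD5 and MLDP fusion proteins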).
Chain of Perilipin-5 (Homo sapiens) + 1-acylglycerol-3-phosphate O-acyltransferase ABHD5 (Homo sapiens) (Q00G26 whole entry, looked up, the tested form may be a part): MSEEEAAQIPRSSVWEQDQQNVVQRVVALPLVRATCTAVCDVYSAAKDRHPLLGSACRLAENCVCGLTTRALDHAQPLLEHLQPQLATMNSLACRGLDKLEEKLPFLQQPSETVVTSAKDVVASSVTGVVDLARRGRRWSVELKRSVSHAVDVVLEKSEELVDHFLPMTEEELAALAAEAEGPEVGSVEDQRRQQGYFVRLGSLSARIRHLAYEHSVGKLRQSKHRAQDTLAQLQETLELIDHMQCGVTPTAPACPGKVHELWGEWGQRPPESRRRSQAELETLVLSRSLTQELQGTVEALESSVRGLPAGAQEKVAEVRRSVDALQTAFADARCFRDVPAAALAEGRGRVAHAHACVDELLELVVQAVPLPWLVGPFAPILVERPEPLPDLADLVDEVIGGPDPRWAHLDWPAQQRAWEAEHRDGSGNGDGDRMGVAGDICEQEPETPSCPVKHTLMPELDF
Chain of Perilipin-5 (Homo sapiens) + 1-acylglycerol-3-phosphate O-acyltransferase ABHD5 (Homo sapiens) (Q8WTS1 whole entry, looked up, the tested form may be a part): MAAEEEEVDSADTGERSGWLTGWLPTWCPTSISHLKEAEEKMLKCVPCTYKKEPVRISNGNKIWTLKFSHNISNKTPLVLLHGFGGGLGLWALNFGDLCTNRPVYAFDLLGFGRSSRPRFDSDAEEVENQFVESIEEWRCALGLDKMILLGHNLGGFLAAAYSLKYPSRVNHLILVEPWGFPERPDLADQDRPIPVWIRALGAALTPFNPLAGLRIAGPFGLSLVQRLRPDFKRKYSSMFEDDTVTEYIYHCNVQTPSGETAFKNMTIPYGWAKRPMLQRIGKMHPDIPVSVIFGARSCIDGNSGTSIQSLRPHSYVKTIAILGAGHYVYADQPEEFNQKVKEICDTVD

In the case of `O=C(CF)N(O)c1ccc(C=Cc2ccccc2)cc1`, the IC50 is reported as > 39.9 µM (inactive).
In the case of `COc1ccc(-c2cc(N)n(S(=O)(=O)c3c(F)c(F)c(F)c(F)c3F)n2)cc1OC`, the IC50 is reported as “inactive”.
For `COc1ccc(NC(=O)C(c2ccccc2)n2c(=O)c(-c3ccco3)nc3ccccc32)cc1` (centres undefined), the IC50 was “inactive”.
`CCN(CC)CCNC(=O)c1ccc(NC(=O)c2cn(-c3ccccc3)nc2-c2cccs2)cc1` was tested, and the IC50 was “inactive”.
With `O=C(C[n+]1cccc(CNC(=O)c2ccc(OC(F)F)cc2)c1)Nc1cccc(C(F)(F)F)c1` the IC50 was “inactive”.
In the case of `CC(=O)Oc1c(Br)cc(N(C(C)=O)S(=O)(=O)c2ccccc2)c2ccccc12`, the IC50 is reported as “inactive”.
`Cc1ccc(S(=O)(=O)N2C[C@@]3(O)Cn4c(=O)ccc(=O)n4C[C@@]3(OC(=O)NCC3CCCCC3)C2)cc1` was tested, and the IC50 was “inactive”.
In the case of `N#Cc1ccc(C(C(=O)Nc2ccc3c(c2)OCCO3)n2c(=O)c(-c3ccco3)nc3ccccc32)cc1` (centres undefined), the IC50 is reported as “inactive”.
In the case of `CC(=O)Nc1ccc(S(=O)(=O)N2c3ccc(F)cc3CCC2C)cc1` (centres undefined), the IC50 is reported as “inactive”.

First: O=c1[nH]c(C2CCN(S(=O)(=O)c3ccc(F)cc3)CC2)nc2c1nnn2Cc1ccc2c(c1)OCCO2
Second: Cc1cc(C)c2nc(NNC(=O)c3ccc(S(=O)(=O)N4CCCC(C)C4)cc3)sc2c1 (centres undefined)
The IC50 of the first is 4.4-fold higher: 8.33 µM for the first, 1.88 µM for the second. The second is the more potent here.

`CC(C)(C)NC(=O)C(c1ccnc2ccccc12)n1c(=O)c(-c2ccco2)nc2ccccc21` (centres undefined) and `COc1ccc(NC(=O)C(c2ccnc3ccccc23)n2c(=O)c(-c3ccco3)nc3ccccc32)cc1` (centres undefined) are within 1.5-fold of each other in IC50: 8.16 µM for the first, 7.88 µM for the second.

First: O=C(/C(=C/O)N=Nc1ccc(Cl)cc1)c1ccncc1
Second: COC(=O)c1cc(=O)n(Cc2ccco2)c(=Nc2ccc(F)cc2)s1
The IC50 of the first is 2.6-fold higher: 9.32 µM for the first, 3.58 µM for the second. The second is the more potent here.

First: Cc1ccc(S(=O)(=O)N2C[C@H]3n4c(=O)ccc(=O)n4C[C@H](OC(=O)Nc4cccs4)[C@@]3(O)C2)cc1
Second: COC(=O)c1cc(=O)n(-c2ccc(F)cc2)c(=Nc2ccc(F)cc2)s1
The IC50 of the first is 2.6-fold higher: 8.68 µM for the first, 3.34 µM for the second.

Going from `CCN(CC)CCC(C)OC(c1ccccc1)c1ccccc1` (centres undefined) to `CSC(=Nc1ccccc1)N=C(SCc1ccccc1)N(C)C`, the IC50 falls from 3.29 µM to 1.19 µM (2.8-fold).

`Cc1cccc(C)c1NC(=O)C(c1ccccc1F)n1c(=O)c(-c2ccco2)nc2ccccc21` (centres undefined) and `Cc1cccc(C)c1NC(=O)C(c1ccccc1)n1c(=O)c(-c2ccco2)nc2ccccc21` (centres undefined) are within 1.5-fold of each other in IC50: 5.65 µM for the first, 7.69 µM for the second.

Going from `O=C(O)CC(O)(CC(=O)O)C(=O)O` to `O=C(/C=C/c1ccccc1)CC(O)(c1ccccc1)C(F)(F)C(F)F` (centres undefined), the IC50 falls from 3.54 µM to 1.1 µM (3.2-fold). The second is the more potent here.

First: O=C1NC(=O)N(c2ccccc2F)C(=O)/C1=C/c1ccc(Oc2ccc([N+](=O)[O-])cn2)cc1
Second: CC1=CC(C)(C)Nc2ccc(OC(=O)C(C)N3C(=O)c4ccccc4C3=O)cc21 (centres undefined)
The IC50 of the first is 2.1-fold higher: 7.53 µM for the first, 3.65 µM for the second. The second is the more potent here.

Compared with `CCCCCNC(=O)C(c1ccc(C#N)cc1)n1c(=O)c(-c2ccco2)nc2ccccc21` (centres undefined), `CC(C)(C)NC(=O)C(c1ccc(C#N)cc1)n1c(=O)c(-c2ccco2)nc2ccccc21` (centres undefined) is 2.6-fold lower in IC50: 6.63 µM for the first, 2.52 µM for the second.

Compared with `O=C1NC(=S)NC(=O)C12C(c1ccccc1)NC(=S)NC2c1ccccc1` (centres undefined), `O=C(NC1CCCCC1)C(c1ccccc1)n1c(=O)c(-c2ccco2)nc2ccccc21` (centres undefined) is 2-fold lower in IC50: 3.88 µM for the first, 1.94 µM for the second.

Going from `Cc1ccc(O)c(C(=O)/C=C/c2ccc3c(c2)OCCCO3)c1` to `CCC1(C)N=C(c2ccc3c(c2)OCO3)CC(c2ccccc2O)N1` (centres undefined), the IC50 falls from 4.93 µM to 1.93 µM (2.6-fold). The second is the more potent here.

Going from `CC(C)(C)NC(=O)C(c1ccc(C(F)(F)F)cc1)n1c(=O)c(-c2ccco2)nc2ccccc21` (centres undefined) to `O=C(NCc1ccccc1)C(c1ccc(C(F)(F)F)cc1)n1c(=O)c(-c2ccco2)nc2ccccc21` (centres undefined), the IC50 falls from 6.67 µM to 3.15 µM (2.1-fold). The second is the more potent here.

`CCCc1nnc(NC(=O)c2nc(S(=O)(=O)Cc3cccc(C)c3)ncc2Cl)s1` and `CSc1nnc(NC(=O)c2nc(S(=O)(=O)Cc3cccc(C)c3)ncc2Cl)s1` are within 1.5-fold of each other in IC50: 4.91 µM for the first, 3.59 µM for the second.

Going from `CC(C)c1nnc(NC(=O)c2nc(S(=O)(=O)Cc3ccc(F)cc3)ncc2Cl)s1` to `CCOc1cc(N)c(Cl)cc1C(=O)NCC1CN(Cc2ccc(F)cc2)CCO1` (centres undefined), the IC50 falls from 3.45 µM to 1.93 µM (1.8-fold).

`Cc1cccc(C)c1NC(=O)C(c1cccc2ccccc12)n1c(=O)c(-c2ccco2)nc2ccccc21` (centres undefined) and `O=C(NCc1ccccc1)C(c1cc2ccccc2o1)n1c(=O)c(-c2ccco2)nc2ccccc21` (centres undefined) are within 1.5-fold of each other in IC50: 4.15 µM for the first, 4.86 µM for the second.

First: O=C(NC1CCCCC1)C(c1cc2ccccc2o1)n1c(=O)c(-c2ccco2)nc2ccccc21 (centres undefined)
Second: O=C(NCc1ccccc1)C(c1ccc(-c2ccccc2)cc1)n1c(=O)c(-c2ccco2)nc2ccccc21 (centres undefined)
The IC50 of the first is 1.7-fold lower: 3.47 µM for the first, 5.97 µM for the second.

`CCC(C)NC(=O)Nc1ccc2c(c1)N(C)C(=O)c1ccccc1S2` (centres undefined) and `Cc1cccc(NC(=O)CSc2nnc(-c3ccco3)c(-c3ccco3)n2)c1` are within 1.5-fold of each other in IC50: 3.6 µM for the first, 4.25 µM for the second.

First: Cc1ccc2nc3cc([N+](=O)[O-])cc([N+](=O)[O-])c3cc2c1
Second: CS(=O)(=O)c1ccc(C(=O)NCCN2C(=O)S/C(=C\c3cccnc3)C2=O)cc1[N+](=O)[O-]
The IC50 of the first is 4.2-fold lower: 1.09 µM for the first, 4.62 µM for the second.

Going from `CN(C)CCN(Cc1ccco1)c1ccccn1` to `CN(C)CCOc1ccc(/C(=C(/CCCl)c2ccccc2)c2ccccc2)cc1`, the IC50 falls from 4.4 µM to 1.2 µM (3.7-fold). The second is the more potent here.

First: CCCCCCC=C1CCC(CN2CCCC2)C1=O (centres undefined)
Second: Cc1cc(C)c(C(CC(=O)c2cccs2)C(C#N)C#N)c(C)c1 (centres undefined)
The IC50 of the first is 4-fold lower: 2.15 µM for the first, 8.57 µM for the second. The first is the more potent here.
